Test results: patent US20220106296A1, “CYANOTRIAZOLE COMPOUNDS AND USES THEREOF” (Novartis AG, priority 2018, published 2022)

Legend:
[1] = system: T. b. brucei Lister427 bloodstream form parasites; assay: T. b. brucei growth inhibition assay (CellTiter-Glo, 48 hours); assay type: cell-based; conditions: Trypanosoma brucei
Text: Bloodstream form of T. b. brucei Lister427 strain was obtained from the Genomics Institute of the Novartis Research Foundation. This strain was used for carrying out growth inhibition and kill kinetics assays. T. b. gambiense STIB930 and T. b. rhodesiense STIB900 were obtained from Swiss TPH, were used for carrying out the growth inhibition assays.
Bloodstream form T. b. brucei Lister 427 parasites were continuously passaged in HMI-9 medium formulated from IMDM medium (Invitrogen), 10% heat-inactivated fetal bovine serum (FBS), 10% Serum Plus medium supplement (SAFC Biosciences), 1 mM hypoxanthine (Sigma-Aldrich), 50 μM bathocuproine disulfonic acid (Sigma-Aldrich), 1.5 mM cysteine (Sigma-Aldrich), 1 mM pyruvic acid (Sigma-Aldrich), 39 μg/mL thymidine (Sigma-Aldrich), and 14 μL/L beta-mercapthoethanol (Sigma-Aldrich); all concentrations of added components refer to that in complete HMI-9 medium. The parasites were cultured in 10 mL of HMI-9 medium in T75 CELL-STAR tissue culture flasks at 37° C./5% CO2.
To determine compound growth inhibitory potency on T. b. brucei Lister427 bloodstream form parasites, 200 nL of 10-point, 3 fold serially diluted compounds in DMSO were transferred to the wells of white, solid bottom 384-well plates (Greiner Bio-One) by either Echo 555 acoustic liquid handling system or Mosquito. Then, 1×10^4 of T. b. brucei parasites in 40 μL of HMI-9 medium were added to each well, and the plates were incubated for 48 hours at 37° C. in 5% CO2 incubators. Parasite numbers in individual plate wells were determined through quantification of intracellular ATP amount. The CellTiter-Glo luminescent cell viability reagent (Promega) was added to plate wells, and ATP-dependent luminescence signal was measured on Tecan M1000 plate Reader after 30 min incubation. Luminescence values in wells with compounds were divided by the average luminescence value of the plate DMSO controls, and used for calculation of compound IC50 values.

[2] = system: intracellular T. cruzi amastigotes; assay: T. cruzi amastigote growth inhibition assay (NIH 3T3 host cells, β-galactosidase readout); assay type: cell-based; conditions: Trypanosoma cruzi, NIH3T3, read-out: (c) T.c.* IC50
Protocol: NIH 3T3 fibroblast cells (ATCC) were maintained in RPMI-1640 medium (Life Technologies) supplemented with 10% heat-inactivated fetal bovine serum and 100 IU penicillin/100 μg/ml streptomycin at 37° C./5% CO2. T. cruzi Tulahuen parasites constitutively expressing E. coli β-galactosidase were maintained in tissue culture as an infection in NIH 3T3 fibroblast cells. Briefly, 2×10^7 T. cruzi trypomastigotes were used to infect 6×10^5 NIH 3T3 cells growing in T75 CELLSTAR tissue culture flasks and cultured at 37° C./5% CO2 until proliferating intracellular parasites lysed host 3T3 cells and were released into the culture medium (typically 6-7 days). During the infection, the tissue culture medium was changed every two days. Number of T. cruzi trypomastigotes present in 1 ml of medium was determined using a haemocytometer.
To determine compound potency on intracellular T. cruzi amastigotes, NIH 3T3 cells were re-suspended in phenol red-free RPMI-1640 medium containing 3% heat-inactivated fetal bovine serum and 100 IU penicillin/100 μg/ml streptomycin, seeded at 1,000 cells/well (40 μl) in white, clear bottom 384-well plates (Greiner Bio-One), and incubated overnight at 37° C./5% CO2. The following day, 100 nl of each compound in DMSO were transferred to individual plate wells by Echo 555 acoustic liquid handling system. After one hour incubation, 1×10^6 of tissue culture-derived T. cruzi trypomastigotes, in 10 μl of phenol red-free RPMI-1640 medium supplemented with 3% heat-inactivated fetal bovine serum and 100 IU penicillin/100 μg/ml streptomycin were added to each well. Plates were then incubated for 6 days at 37° C./5% CO2. Intracellular T. cruzi parasites were quantified by measuring the activity of parasite-expressed β-galactosidase. Ten microliters of a chromogenic β-galactosidase substrate solution (0.6 mM chlorophenol red-β-D-galactopyranoside/0.6% NP-40 in PBS; both reagents from Calbiochem) were added to each well and incubated for 2 h at room temperature. After incubation, absorption was measured at 570 nm on SpectraMax M2 plate reader (Molecular Devices). Measured absorbance values in wells with compounds were divided by the average absorbance value of the plate DMSO controls, and used for calculation of compound EC50 values as described above.

Structure (SMILES)	IC50 [1]	IC50 [2]
N#Cc1ncn(CC(=O)N2Cc3ccc(-c4cccnc4C(F)F)cc3C2)n1 [Example 1, 1-(2-(5-(2-(difluoromethyl)pyridin-3-yl)isoindolin-2-yl)-2-oxoethyl)-1H-1,2,4-triazole-3-carbonitrile]	100 to 1000 nM	100 to 1000 nM
N#Cc1ncn(CC(=O)N2Cc3ccc(-c4c(Cl)cncc4C(F)(F)F)cc3C2)n1 [Example 2, 1-(2-(5-(3-chloro-5-(trifluoromethyl)pyridin-4-yl)isoindolin-2-yl)-2-oxoethyl)-1H-1,2,4-triazole-3-carbonitrile]	100 to 1000 nM	< 100 nM
N#Cc1ncn(CC(=O)N2Cc3ccc(-c4cc(F)ncc4Cl)cc3C2)n1 [Example 3, 1-(2-(5-(5-chloro-2-fluoropyridin-4-yl)isoindolin-2-yl)-2-oxoethyl)-1H-1,2,4-triazole-3-carbonitrile]	< 100 nM	< 100 nM
N#Cc1ncn(CC(=O)N2Cc3ccc(-c4cccc(Cl)c4C(F)(F)F)cc3C2)n1 [Example 4, 1-(2-(5-(3-chloro-2-(trifluoromethyl)phenyl)isoindolin-2-yl)-2-oxoethyl)-1H-1,2,4-triazole-3-carbonitrile]	< 100 nM	< 100 nM
N#Cc1ncn(CC(=O)N2Cc3ccc(-c4cccnc4OCC(F)(F)F)cc3C2)n1 [Example 5, 1-(2-oxo-2-(5-(2-(2,2,2-trifluoroethoxy)pyridin-3-yl)isoindolin-2-yl)ethyl)-1H-1,2,4-triazole-3-carbonitrile]	100 to 1000 nM	100 to 1000 nM
Cc1ccc(-c2ccc3c(c2)CN(C(=O)Cn2cnc(C#N)n2)C3)c(C(F)(F)F)n1 [Example 6, 1-(2-(5-(6-methyl-2-(trifluoromethyl)pyridin-3-yl)isoindolin-2-yl)-2-oxoethyl)-1H-1,2,4-triazole-3-carbonitrile]	< 100 nM	< 100 nM
N#Cc1ncn(CC(=O)N2Cc3ccc(-c4c(C(F)(F)F)ccnc4Cl)cc3C2)n1 [Example 7, 1-(2-(5-(2-chloro-4-(trifluoromethyl)pyridin-3-yl)isoindolin-2-yl)-2-oxoethyl)-1H-1,2,4-triazole-3-carbonitrile]	100 to 1000 nM	< 100 nM
N#Cc1ncn(CC(=O)N2Cc3ccc(-c4cncc(F)c4C(F)(F)F)cc3C2)n1 [Example 9, 1-(2-(5-(5-fluoro-4-(trifluoromethyl)pyridin-3-yl)isoindolin-2-yl)-2-oxoethyl)-1H-1,2,4-triazole-3-carbonitrile]	100 to 1000 nM	100 to 1000 nM
N#Cc1ncn(CC(=O)N2Cc3ccc(-c4c(F)cc(F)cc4Cl)cc3C2)n1 [Example 10, 1-(2-(5-(2-chloro-4,6-difluorophenyl)isoindolin-2-yl)-2-oxoethyl)-1H-1,2,4-triazole-3-carbonitrile]	< 100 nM	< 100 nM
N#Cc1ncn(CC(=O)N2Cc3ccc(-c4ccccc4)cc3C2)n1 [Example 79, 1-(2-oxo-2-(5-phenylisoindolin-2-yl)ethyl)-1H-1,2,4-triazole-3-carbonitrile]	≥ 1000 nM	–
N#Cc1ncn(CC(=O)N2Cc3ccc(-c4cccc(Cl)c4)cc3C2)n1 [Example 80, 1-(2-(5-(3-chlorophenyl)isoindolin-2-yl)-2-oxoethyl)-1H-1,2,4-triazole-3-carbonitrile]	≥ 1000 nM	–
N#Cc1ncn(CC(=O)N2Cc3ccc(-c4cccc(F)c4)cc3C2)n1 [Example 81, 1-(2-(5-(3-fluorophenyl)isoindolin-2-yl)-2-oxoethyl)-1H-1,2,4-triazole-3-carbonitrile]	≥ 1000 nM	–
N#Cc1ncn(CC(=O)N2Cc3ccc(-c4ccc(F)cc4)cc3C2)n1 [Example 82, 1-(2-(5-(4-fluorophenyl)isoindolin-2-yl)-2-oxoethyl)-1H-1,2,4-triazole-3-carbonitrile]	≥ 1000 nM	–
N#Cc1ncn(CC(=O)N2Cc3ccc(-c4ccc(OC(F)(F)F)cc4)cc3C2)n1 [Example 83, 1-(2-oxo-2-(5-(4-(trifluoromethoxy)phenyl)isoindolin-2-yl)ethyl)-1H-1,2,4-triazole-3-carbonitrile]	≥ 1000 nM	–
